The values that follow are results of earlier work, collected in patent US12090222B2, “Method for dyeing keratin material, comprising the use of an organosilicon compound, two dyeing compounds and a post-treatment agent” (Henkel AG & Co. KGaA, priority 2020, dated 2024).

The conditions of this data set: 25° C.

For the compound `O=S(=O)([O-])c1ccc(N=Nc2c(O)ccc3ccccc23)cc1.[Na+]` [Acid Orange 7, sodium salt of 4-[(2-hydroxy-1-naphthyl)azo]benzene sulphonate], the solubility in water result is reported as “more than 7 g/L”. Regarding `Nc1cc(S(=O)(=O)[O-])cc2cc(S(=O)(=O)[O-])c(N=Nc3ccccc3)c(O)c12.[Na+].[Na+]` [Acid Red 33, disodium salt of 5-amino-4-hydroxy-3-(phenylazo)-naphthalene-2,7-disulphonate], the solubility in water entry was “about 2.5 g/L”.

Regarding `O=C([O-])c1c(Cl)c(Cl)c(Cl)c(Cl)c1-c1c2c(Br)cc(=O)c(Br)c-2oc2c(Br)c(O)cc(Br)c12.O=C([O-])c1c(Cl)c(Cl)c(Cl)c(Cl)c1-c1c2c(Br)cc(=O)c(Br)c-2oc2c(Br)c(O)cc(Br)c12.[Na+].[Na+]` [Acid Red 92, disodium salt of 3,4,5,6-tetrachloro-2-(1,4,5,8-tetrabromo-6-hydroxy-3-oxoxanthen-9-yl)benzoic acid], the solubility in water entry is reported as “greater than 10 g/L”. As to `O=C([O-])C1=NN(c2ccc(S(=O)(=O)[O-])cc2)C(=O)C1N=Nc1ccc(S(=O)(=O)[O-])cc1.[Na+].[Na+].[Na+]` (centres unmarked) [Acid Yellow 23, trisodium salt of 4,5-dihydro-5-oxo-1-(4-sulfophenyl)-4-((4-sulfophenyl)azo)-1H-pyrazole-3-carboxylic acid], the “solubility in water (in words)” value is on record as “highly soluble”.

Take “mixture of the sodium salts of mono- and disulfonic acids of 2-(2-quinolyl)-1H-indene-1,3(2H)-dione [Acid Yellow 3]”: the solubility in water entry is “about 20 g/L”.
